This is an account of results in patent US3984431A, “Derivatives of pyrazole-5-acetic acid” (priority 1972, dated 1976).

Molecules are shown by their SMILES. Like-named read-outs stand apart in the source and are kept apart here.

Assay [1] concerns Pain (cramp) caused by acetic acid. Description: Analgesic action: pain (cramp) caused by acetic acid in the mouse (Siegmund). The format is in vivo. The conditions noted are these: for ED50: sc, read-out: 50% effective dose. How it is done: The analgesic action was tested in relation to the pain caused in the mouse by the subcutaneous injection of acetic acid.
(§1) In all cases the products of the invention are compared to the following reference substances, aspirin, phenylbutazone, indomethacine.

The test system of assay [2] is Brewer's yeast induced pyrexia. In words: Antipyretic action: Brewer's yeast induced pyrexia (Bianchi). As to conditions: read-out: 50% effective dose. It is filed as in vivo, rat.
Text: Antipyretic action was established on the pyretic rat by the Bianchi method.
as §1

The subject of assay [3] is Carragheen induced oedema. Description: Anti-inflammatory action: carragheen induced oedema (Winter). The conditions noted are these: read-out: 50% effective dose. The format is in vivo, rat.
Text: 1. Carragheen induced odema; method of Winter Arch. intern.
as §1

Assay [4] deals with Ultra-violet induced erythema. Description: Anti-inflammatory action: ultra-violet induced erythema (Winter). It is filed as in vivo, guinea-pig. The conditions noted are these: Cavia porcellus, read-out: 50% effective dose.
Text: 2. Ultra-violet induced erythema; method of Winter Arch. intern.
as §1

The subject of another assay is Cotton pellet granulema. In words: Anti-inflammatory action: cotton pellet granuloma (Winter). It is filed as in vivo, rat. As to conditions: read-out: 50% effective dose.
Text: as §1

The nature of assay [5]: Overall appraisal of anti-inflammatory, antipyretic and analgesic tests versus reference substances. It is filed as in vivo. As to conditions: for overall activity compared with example 5 (in words): compared to example 5; for overall activity compared with phenylbutazone (in words): compared to phenylbutazone. On the procedure: 1. Carragheen induced odema; method of Winter Arch. intern. Pharmacod. volume 112, page 174 (1957)
2. Ultra-violet induced erythema; method of Winter Arch. intern. Pharmacod. volume 114, page 261 (1958)
3. The formation of granulomae caused by the sub-cutaneous implantation of pellets of cotton in the rat; method of Winter Journal of the American Pharmaceutical Association, Science Edition, Volume 46, page 515 (1957)
The analgesic action was tested in relation to the pain caused in the mouse by the subcutaneous injection of acetic acid. Method based upon that of Siegmund, Proceedings of the Society of Experimental Biology and Medicine, volume 75, page 729 (1957)
Antipyretic action was established on the pyretic rat by the Bianchi method. Arzneimittel Forschung, volume 17, page 246 (1967)
as §1

Where [6] appears, read: mouse, acetic acid injected subcutaneously.
The mark [7] stands for this setting: guinea-pig, oral administration.
Setting [8] is: rat, oral administration, sub-cutaneous implantation of cotton pellets.

Consider `CC(=O)Oc1ccccc1C(=O)O` [ASPIRIN, aspirin, reference compound], for which the ED50 in assay [1] (Mus musculus) was determined as 130 mg/kg; in assay [2] (Rattus norvegicus) it was 30 mg/kg; in assay [3] (Rattus norvegicus, po), 180 mg/kg; in assay [4] (po), 50 mg/kg.
Regarding `CCCCC1C(=O)N(c2ccccc2)N(c2ccccc2)C1=O` [PHENYLBUTAZONE, phenylbutazone, reference compound], the ED50 in assay [1] (setting [6]) worked out at 110 mg/kg; in assay [2] (pyretic rat), 10 mg/kg; in assay [3] (rat, oral administration), 120 mg/kg; in assay [4] (setting [7]), 8.5 mg/kg; with Cotton pellet granulema (setting [8]) it was 200 mg/kg.
As to `O=C(O)Cc1c(-c2ccccc2)c(-c2ccccc2)nn1Cc1ccccc1` [Example 1, 1-benzyl-3,4-diphenylpyrazolyl-5-acetic acid], the “overall activity compared with example 5 (in words)” value in assay [5] is reported as “active substances, although slightly less so than example 5”. Further, the ED50 in assay [1] (setting [6]) turned out to be 150 mg/kg; in assay [2] (pyretic rat), 1 mg/kg; in assay [3] (rat, oral administration) it was 60 mg/kg; in assay [4] (setting [7]) it was 1.6 mg/kg; in the assay on Cotton pellet granulema (setting [8]), 80 mg/kg.
Take `O=C(O)Cc1c(-c2ccccc2)c(-c2ccccc2)nn1-c1ccccc1` [Example 5, 1,3,4-triphenylpyrazolyl-5-acetic acid]: the “overall activity compared with indomethacine (in words)” value in assay [5] (compared to indomethacine) is “at least equivalent to indomethacine”. Moreover, in assay [5], the “overall activity compared with phenylbutazone (in words)” value is listed as “much more powerful than phenylbutazone”. Also, the “anti-inflammatory and anti-pyretic activity (in words)” value in assay [5] (from the table) was “powerful anti-inflammatory and anti-pyretic agent”. Besides, the “analgesic effect (in words)” value in assay [1] (from the table) is on record as “marked analgesic effect”. Moreover, the ED50 worked out at 90 mg/kg in assay [1] (setting [6]); 0.6 mg/kg in assay [2] (pyretic rat); 14 mg/kg in assay [3] (rat, oral administration); 3 mg/kg in assay [4] (setting [7]); 6 mg/kg with Cotton pellet granulema (setting [8]).
In the case of `CC(C)Cn1nc(-c2ccccc2)c(-c2ccccc2)c1CC(=O)O` [Example 3, 1-isobutyl-3,4-diphenylpyrazolyl-5-acetic acid], in assay [5], the “overall activity compared with example 5 (in words)” value is on record as “active substances, although slightly less so than example 5”. The “overall activity compared with phenylbutazone (in words)” value in assay [5] was “still more powerful than phenylbutazone”. Besides, the ED50 worked out at 180 mg/kg in assay [1] (setting [6]); 0.5 mg/kg in assay [2] (pyretic rat); 30 mg/kg in assay [3] (rat, oral administration); 1 mg/kg in assay [4] (setting [7]); 18 mg/kg with Cotton pellet granulema (setting [8]).
For the compound `COc1ccc2c(c1)c(CC(=O)O)c(C)n2C(=O)c1ccc(Cl)cc1` [INDOMETHACINE, indomethacine, reference compound], the ED50 stood at 5.5 mg/kg in assay [1] (Mus musculus); 1.3 mg/kg in assay [2] (Rattus norvegicus); 14 mg/kg in assay [3] (Rattus norvegicus, po); 1.5 mg/kg in assay [4] (po); 8 mg/kg in the assay on Cotton pellet granulema (Rattus norvegicus, po).
